{
  "source": "patent US20120101015A1",
  "about": "“ANTI-WEAR AGENTS WITH A REDUCED NEUROTOXICITY” (priority 2009, published 2012)",
  "key": {"[1]": {"target": "human butyrylcholine esterase (Homo sapiens, UniProt P06276)", "sequence (P06276 29-602)": "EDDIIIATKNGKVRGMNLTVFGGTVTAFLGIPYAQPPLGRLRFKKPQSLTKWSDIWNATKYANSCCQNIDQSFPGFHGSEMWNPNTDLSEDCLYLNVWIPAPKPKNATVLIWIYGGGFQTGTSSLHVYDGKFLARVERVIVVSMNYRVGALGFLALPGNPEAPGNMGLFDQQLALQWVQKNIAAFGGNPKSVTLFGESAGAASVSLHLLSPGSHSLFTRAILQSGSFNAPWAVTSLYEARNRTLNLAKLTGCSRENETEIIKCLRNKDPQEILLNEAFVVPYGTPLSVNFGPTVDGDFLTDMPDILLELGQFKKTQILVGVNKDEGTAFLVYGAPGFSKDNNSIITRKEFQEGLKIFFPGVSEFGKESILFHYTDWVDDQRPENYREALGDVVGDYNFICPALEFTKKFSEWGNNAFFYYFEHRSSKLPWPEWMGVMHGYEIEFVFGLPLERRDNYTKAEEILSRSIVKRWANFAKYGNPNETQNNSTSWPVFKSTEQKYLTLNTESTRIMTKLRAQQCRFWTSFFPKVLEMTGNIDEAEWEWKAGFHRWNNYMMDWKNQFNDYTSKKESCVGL", "assay_type": "biochemical", "method": "A more sensitive assay was used in order to discriminate alkylphenyl diphenyl phosphates, di-alkylphenyl phenyl phosphates and tri-alkylphenyl phosphates based on their potential ability to inhibit BChE.\nThe assay was essentially the same as that described in Example 2 except that the triaryl phosphate solution to be tested was prepared in pure ethanol instead of in sodium phosphate buffer.\nSome experiments were performed with rat liver microsomes (RLM) because human liver microsomes (HLM) were not available in sufficient quantity. However, human butyrylcholine esterase was used in all assays.\nBriefly, base stock triarylphosphate solutions were prepared by dissolution or dilution of a triarylphosphate of interest in ethanol at 2.5 mg/ml. Dilution solutions were then prepared in buffer containing 10% ethanol. 7.5 μl of each dilution solution comprising a triarylphosphate was added to a liver microsome mix in phosphate buffer to give a solution comprising microsomes, NADPH (1 mM) and triarylphosphate at a concentration ranging from 0.20 to 25 μg/ml. This pre-incubation was done at room temperature for 20-25 minutes. After incubation, 7.5 μl of BChE solution (at 9.75 μg/ml in phosphate buffer) was added to the resulting microsome-containing solution. The resulting solution was incubated for 20-25 minutes. The BChE residual activity was then measured as described in Example 2 hereabove.\nFor each triarylphosphates, the percentages of residual BChE activity were determined for triarylphosphate final concentrations ranging from 0.3 μg/ml to 20 μg/ml.\nThe Durad 125® combination was used as positive control. For reminder, Durad 125 consists in a mixture of meta and para isomers of tricresyl phosphate."}, "[2]": {"target": "plasma BChE (Rattus norvegicus, UniProt Q9JKC1)", "sequence (Q9JKC1 24-597)": "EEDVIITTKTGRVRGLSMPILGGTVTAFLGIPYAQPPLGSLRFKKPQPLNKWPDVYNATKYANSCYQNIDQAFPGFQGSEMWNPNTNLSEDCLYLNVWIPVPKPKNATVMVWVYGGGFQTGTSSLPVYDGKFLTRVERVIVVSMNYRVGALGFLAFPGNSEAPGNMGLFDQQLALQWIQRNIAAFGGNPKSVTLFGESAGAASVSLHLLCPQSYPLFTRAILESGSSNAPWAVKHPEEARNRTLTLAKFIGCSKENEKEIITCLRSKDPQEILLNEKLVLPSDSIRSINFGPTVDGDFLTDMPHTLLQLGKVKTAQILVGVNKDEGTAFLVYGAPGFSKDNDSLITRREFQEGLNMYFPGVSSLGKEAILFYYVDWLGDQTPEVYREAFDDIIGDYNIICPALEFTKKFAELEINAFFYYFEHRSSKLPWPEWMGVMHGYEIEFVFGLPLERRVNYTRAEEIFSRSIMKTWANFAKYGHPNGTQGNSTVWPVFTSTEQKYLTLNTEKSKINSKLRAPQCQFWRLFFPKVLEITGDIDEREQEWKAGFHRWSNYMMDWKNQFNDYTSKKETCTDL", "settings": "oral dose of 240 mg/kg, 24 hours post-dosing", "description": "The activity of BChE in the plasma of rats was determined following oral administration of 240, 120, 60 and 10 mg/kg of body weight of Durad 125 or tri-para-tert-butyl phosphate at 6 hours postdosing and 24 hours postdosing. Each dose solution was prepared in a corn oil vehicle and administered by gavage. Control animals were administered an appropriate amount of corn oil (witout any triarylphosphate compounds). All animals were fasted for approximately 16 h prior to administration of the dose containing Durad 125, tri-p-t-butylphenyl phosphate or only corn oil.\nThree to six animals per time point and per dose were humanely anesthetized, and sacrificed. For each animal, the blood was collected and the plasma was separated by centrifugation. The plasma samples were then stored at −80° C. until performing the BChE activity assay.\nThe BChE activity assay was performed as previously described according to Ellman et al (Biochem. Pharmacol. 7, 88-95)."}, "[3]": {"target": "human butyrylcholinesterase (BChE) (Homo sapiens, UniProt P06276)", "sequence (P06276 29-602)": "as the sequence (P06276 29-602) above", "assay": "In vitro BChE activity assay after incubation with human liver microsomes and NADPH (Example 2, stock in phosphate buffer)", "assay_type": "biochemical", "settings": "for BChE residual activity percentage: triaryl phosphate 25 μg/ml, BChE reference activity 3.76 nmol DTNB/min", "description": "As part of the study, the neurotoxicity of triaryl phosphates and combinations thereof was evaluated through an in vitro test using a model enzyme of esterase: the human butyrylcholinesterase. The human butyrylcholinesterase (BChE), or plasma cholinesterase, has an enzyme activity profile close to that of human acetylcholinesterase.\nIn this assay, triarylphosphates of interest are first incubated with human liver microsomes in the presence of NADPH to enable the production of potential metabolites. The incubation with microsomes is then followed by incubation with purified human BChE in the context of a micro-BChE activity assay.\nThis in vitro assay thus reproduces the in vivo metabolization of triaryl phosphates in the liver and enables to evaluate the anti-esterase activity of the resulting metabolites.\nSix individual preparations of the same amount were collected to form a homogeneous pool representing the variability amongst the individuals, using a Potter-Elvehem Glass-Teflon homogenizer, with a 5 run-procedure in ice.\nMixture samples of 1.7 ml were collected in polypropylene centrifuge tubes, and thereafter stored at −80° C. The measured liver microsome content was 7.83 mg/ml.\nA 250 μg/ml triaryl phosphate solution was prepared in a 50 mM sodium phosphate buffer at pH 7.4 by vigorously stirring in a vortex mixer for one minute. […]\nThe BChE activity is then measured according to the protocol defined by Ellman and al, (Ellman and al., 1961, Biochem Pharmacol, 7: 88-95), modified for use in micro-titration format. […]\nMonitoring the TNB formation is effected by measuring the absorbance at 405 nm for 4 minutes at 23° C. with a microplate optical reader such as SpectraMax Plus spectrophotometer.\nThe BChE residual activity in the presence of triaryl phosphate is then expressed depending on the BChE reference activity, that is to say depending on the BChE activity measured in the presence of liver microsomes and NADPH and in the absence of triaryl phosphate (reference experiment)."}, "[4]": {"test_system": "hens", "settings": "oral, Weiner and Jortner 1999; cited from earlier work"}, "[5]": {"settings": "human liver microsomes (HLM), concentrations 1 μg/ml to 20 μg/ml"}, "[6]": {"settings": "human liver microsomes, up to 20 μg/ml (FIG. 3a)"}, "[7]": {"settings": "rat liver microsomes (RLM), concentrations 1 μg/ml to 20 μg/ml"}},
  "note": "Like-named read-outs stand apart in the source and are kept apart here.",
  "data": [
    {"compound": "CC(C)(C)c1ccc(OP(=O)(Oc2ccccc2)Oc2ccc(C(C)(C)C)cc2)cc1", "note": "[di-para-tert-butylphenyl phenylphosphate]", "values": [
      {"measurement": "Minimal BChE residual activity", "setting": "[1]; [5]", "result": 85.2, "unit": "%"},
      {"measurement": "inhibition of BChE", "setting": "[1]; [6]", "result": "did not induce a significant inhibition of BChE"}
    ]},
    {"compound": "CC(C)(C)c1ccc(OP(=O)(Oc2ccc(C(C)(C)C)cc2)Oc2ccc(C(C)(C)C)cc2)cc1", "note": "[P1, Tri-para-tert-butylphenyl phosphate]", "values": [
      {"measurement": "inhibition of plasma BChE", "setting": "[2]", "result": "does not induce BChE inhibition"},
      {"measurement": "Minimal BChE residual activity", "setting": "[1]; [5]", "result": 90, "unit": "%"},
      {"measurement": "inhibition of BChE", "setting": "[1]; [6]", "result": "did not induce a significant inhibition of BChE"},
      {"measurement": "Minimal BChE residual activity", "setting": "[1]; [7]", "result": ">100", "unit": "%"}
    ]},
    {"compound": "1-methylnonylphenyl diphenyl phosphate", "values": [
      {"measurement": "Minimal BChE residual activity", "setting": "[1]; [7]", "result": 5.2, "unit": "%"}
    ]},
    {"compound": "CC(C)c1ccc(OP(=O)(Oc2ccc(C(C)C)cc2)Oc2ccc(C(C)C)cc2)cc1", "note": "[P2, Tri-para-isopropylphenyl phosphate]", "values": [
      {"measurement": "Minimal BChE residual activity", "setting": "[1]", "result": ">100", "unit": "%"},
      {"measurement": "inhibition of BChE", "setting": "[1]", "result": "did not inhibit BChE"}
    ]},
    {"compound": "CC(C)(C)c1ccc(OP(=O)(Oc2ccccc2)Oc2ccccc2)cc1", "note": "[para-tert-butylphenyl diphenyl phosphate]", "values": [
      {"measurement": "Minimal BChE residual activity", "setting": "[1]; [5]", "result": 44.9, "unit": "%"},
      {"measurement": "inhibition of BChE", "setting": "[1]; human liver microsomes, concentrations higher than 5 μg/ml (FIG. 3a)", "result": "at least 40%"}
    ]},
    {"compound": "O=P(Oc1ccccc1)(Oc1ccccc1)Oc1ccccc1", "note": "[C7, tri-phenylphosphate]", "values": [
      {"measurement": "BChE inhibiting potential after incubation", "setting": "[3]", "result": "non negligible inhibiting potential"},
      {"measurement": "BChE residual activity percentage", "setting": "[3]", "result": "44.8 +/− 10.4%"},
      {"measurement": "neurotoxicity", "setting": "[4]", "result": "non neurotoxic or poorly neurotoxic"}
    ]},
    {"compound": "dodecylphenyl diphenyl phosphate", "values": [
      {"measurement": "Minimal BChE residual activity", "setting": "[1]; [7]", "result": 16, "unit": "%"}
    ]},
    {"compound": "CC(C)c1ccc(OP(=O)(Oc2ccccc2)Oc2ccc(C(C)C)cc2)cc1", "note": "[di-para-isopropylphenyl phenylphosphate]", "values": [
      {"measurement": "Minimal BChE residual activity", "setting": "[1]; [7]", "result": 76.5, "unit": "%"}
    ]},
    {"compound": "CC(C)(C)c1ccccc1OP(=O)(Oc1ccccc1C(C)(C)C)Oc1ccccc1C(C)(C)C", "note": "[tri-ortho-tert-butylphenyl phosphate]", "values": [
      {"measurement": "Minimal BChE residual activity", "setting": "[1]", "result": ">100", "unit": "%"}
    ]},
    {"compound": "CC(C)(C)c1cccc(OP(=O)(Oc2cccc(C(C)(C)C)c2)Oc2cccc(C(C)(C)C)c2)c1", "note": "[tri-meta-tert-butylphenyl phosphate]", "values": [
      {"measurement": "Minimal BChE residual activity", "setting": "[1]", "result": ">100", "unit": "%"}
    ]},
    {"compound": "CC(C)c1ccccc1OP(=O)(Oc1ccccc1C(C)C)Oc1ccccc1C(C)C", "note": "[P3, Tri-ortho-isopropylphenyl phosphate]", "values": [
      {"measurement": "Minimal BChE residual activity", "setting": "[1]", "result": 72.6, "unit": "%"}
    ]},
    {"compound": "Cc1ccccc1OP(=O)(Oc1ccccc1C)Oc1ccccc1C", "note": "[C6, tri-ortho-cresyl phosphate]", "values": [
      {"measurement": "BChE residual activity percentage", "setting": "[3]", "result": "very low"},
      {"measurement": "neurotoxicity", "setting": "[4]", "result": "highly neurotoxicity"}
    ]}
  ]
}
